According to patent publication US8258151B2, “3-aminoimidazo [1,2-A] pyridine derivatives as SGLT inhibitors” (Merck Patent GmbH, priority 2006, dated 2012):

Columns and labels:
SGLT1 = biological target: T1, SGLT1 (Homo sapiens, UniProt P13866); experiment: SGLT1 activity measurement: 14C-AMG uptake in BHK cells transfected with SGLT1; type: cell-based; conditions: AMG 50 μM, 37° C., 90 min
T1 construct: expressed in transfected cells
T1 sequence (P13866 1-664): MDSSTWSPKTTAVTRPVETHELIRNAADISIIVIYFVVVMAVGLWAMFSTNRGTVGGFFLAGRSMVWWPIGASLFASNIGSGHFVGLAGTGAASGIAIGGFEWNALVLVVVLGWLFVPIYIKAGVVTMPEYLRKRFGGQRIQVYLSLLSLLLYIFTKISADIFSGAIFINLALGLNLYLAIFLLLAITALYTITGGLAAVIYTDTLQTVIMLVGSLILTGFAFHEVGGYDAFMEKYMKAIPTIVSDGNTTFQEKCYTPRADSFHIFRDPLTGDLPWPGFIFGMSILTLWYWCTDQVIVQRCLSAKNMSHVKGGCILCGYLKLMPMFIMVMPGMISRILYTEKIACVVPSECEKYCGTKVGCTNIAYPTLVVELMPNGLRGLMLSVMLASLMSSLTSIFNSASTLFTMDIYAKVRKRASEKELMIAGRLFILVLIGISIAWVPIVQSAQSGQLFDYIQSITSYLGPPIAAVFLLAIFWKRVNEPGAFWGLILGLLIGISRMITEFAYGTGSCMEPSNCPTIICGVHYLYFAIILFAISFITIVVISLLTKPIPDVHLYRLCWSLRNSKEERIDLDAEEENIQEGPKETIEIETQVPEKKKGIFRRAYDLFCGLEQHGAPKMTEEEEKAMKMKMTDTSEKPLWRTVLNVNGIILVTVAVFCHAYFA
From the text: (§1) The compounds can be tested on their SGLT inhibition properties by means of BHK cells expressing SGLT1 and SGLT2. The production of the cells and the testing can be carried out as described below.
To construct the SGLT1 expression vector (KL225), the SLC5A1 gene (homologous to NM_000343) was amplified from a cDNA library using standard PCR technology and cloned over NheI/XhoI sites into pcDNA3.1 expression vector (Invitrogen) containing neomycin as a selection marker. In this vector, transcription uses the enhancer/promoter of human cytomegalovirus.
The final vector KL225 together with an additional vector containing a dihydrofolate reductase gene as a selection marker was introduced into cells. Transfection into BHK21 cells (ATCC CCL-10), cultivated in DMEM medium (GIBCO/BRL), supplemented with 10% foetal calf serum (FCS) and 20 mM glutamine, was carried out using calcium phosphate transfections according to Graham, F. L. and van der Ebb, A. J. (1973), Virology 52: 456 with 5-20 μg of uncut plasmids for 10^7 cells. Stable transfectants were selected in medium containing 1 mg/ml of G418 (GIBCO/BRL) and 20-5000 nM methotrexate as final concentration, where only cells which expressed the neomycin gene and overexpressed the dhfr gene were able to grow. After growth for 2-3 weeks, the cells were cloned (0.5 cells/well) and the clones were investigated for SGLT expression in the radioactive uptake assay. […]
(§2) A 96-well cell-based assay was developed and adapted to HTS requirements:
(§3) BHK cells (transfected with SGLT1 or SGLT2) were seeded into 96-well microtitre plates (Cultureplates, Perkin Elmer). After at least 24 h, medium was removed and the cell layer was washed with assay buffer (140 mM NaCl, 2 mM KCl, 1 mM CaCl2, 1 mM MgCl2, 10 mM HEPES, 5 mM Tris, adjusted with 1 M KOH to pH 7.4). After addition of 40 μl of assay buffer, 50 μl of AMG (50 μM for SGLT1 and 2 mM for SGLT2) in the presence or absence of compounds, the cells were incubated in a total volume of 100 μl at 37° C. for 90 min. Supernatant was removed by suction and discarded. The cells were washed and lysed by addition of 50 μl water. After 10 minutes at room temperature 200 μl Microscint 40 (Perkin Elmer) were added. The radioactivity was counted in a Topcount microplate scintillation counter (Perkin Elmer). The non-specific uptake was determined in sodium-free assay buffer (266 mM sucrose, 2 mM KCl, 1 mM CaCl2, 1 mM MgCl2, 10 mM HEPES, 5 mM Tris, adjusted with 1 M KOH to pH 7.4).

SGLT2 = biological target: T2, SGLT2 (Homo sapiens, UniProt P31639); experiment: SGLT2 activity measurement: 14C-AMG uptake in BHK cells transfected with SGLT2; type: cell-based; conditions: AMG 2 mM, 37° C., 90 min
T2 construct: expressed in transfected cells
T2 sequence (P31639 1-672): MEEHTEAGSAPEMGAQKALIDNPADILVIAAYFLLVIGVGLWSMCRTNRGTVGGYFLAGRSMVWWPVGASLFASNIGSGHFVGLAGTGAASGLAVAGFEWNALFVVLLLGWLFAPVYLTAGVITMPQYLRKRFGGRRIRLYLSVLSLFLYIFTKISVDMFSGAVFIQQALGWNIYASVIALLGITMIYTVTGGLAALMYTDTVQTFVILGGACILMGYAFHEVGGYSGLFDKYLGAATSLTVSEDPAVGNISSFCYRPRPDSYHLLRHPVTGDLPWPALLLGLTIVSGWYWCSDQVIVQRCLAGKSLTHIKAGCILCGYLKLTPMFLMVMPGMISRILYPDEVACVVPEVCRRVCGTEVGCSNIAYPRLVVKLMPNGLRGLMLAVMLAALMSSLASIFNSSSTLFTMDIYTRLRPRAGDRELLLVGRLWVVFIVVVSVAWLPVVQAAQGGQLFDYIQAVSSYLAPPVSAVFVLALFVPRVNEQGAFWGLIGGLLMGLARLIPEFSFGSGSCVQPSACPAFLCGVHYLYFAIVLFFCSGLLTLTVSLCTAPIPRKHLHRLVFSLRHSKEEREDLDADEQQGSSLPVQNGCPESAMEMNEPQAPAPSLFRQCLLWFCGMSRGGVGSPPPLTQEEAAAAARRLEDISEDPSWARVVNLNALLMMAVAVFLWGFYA
From the text: as §1
To construct the SGLT2 expression vector (KL224), the SLC5A2 gene (homologous to NM_003041) was amplified from a cDNA library using standard PCR technology and cloned over NheI/XhoI sites into PCI-neo expression vector (Promega) containing neomycin as a selection marker. In this vector, transcription used the enhancer/promoter of human cytomegalovirus and the SV40 polyadenylation signal.
The final vector KL224 together with an additional vector containing a dihydrofolate reductase gene as a selection marker was introduced into cells. Transfection into BHK21 cells (ATCC CCL-10), cultivated in DMEM medium (GIBCO/BRL), supplemented with 10% foetal calf serum (FCS) and 20 mM glutamine, was carried out using calcium phosphate transfections according to Graham, F. L. and van der Ebb, A. J. (1973), Virology 52: 456 with 5-20 μg of uncut plasmids for 10^7 cells. Stable transfectants were selected in medium containing 1 mg/ml of G418 (GIBCO/BRL) and 20-5000 nM methotrexate as final concentration, where only cells which expressed the neomycin gene and overexpressed the dhfr gene were able to grow. After growth for 2-3 weeks, the cells were cloned (0.5 cells/well) and the clones were investigated for SGLT expression in the radioactive uptake assay.
Principally, uptake of ^14C-α-methyl-D-glucopyranoside (AMG) in, for example, Xenopus oocytes injected with the corresponding cRNA has been described (for example Wen-Sen Lee et al. (1994), J. Biol. Chem. 269, 12032-12039; Guofeng You et al. (1995), J. Biol. Chem. 270, 29365-29371).
as §2, §3

Row | Structure (SMILES) | IC50 (SGLT1) | IC50 (SGLT2)
1 | CCc1cccc2nc(-c3ccccc3OCC(N)=O)c(Nc3c(C)cccc3C)n12 [Compound A13, 2-[2-(Aminocarbonylmethoxy)phenyl]-3-(2,6-dimethylphenylamino)-5-ethylimidazo[1,2-a]-pyridine] | 1 to 10 µM | 0.01 to 1 µM
2 | CCc1cc(OC2COC(=O)O2)cc(OCC(N)=O)c1-c1nc2ccc(F)cn2c1Nc1c(C)cccc1C (stereo not drawn) [Compound A198, 2-[2-(Aminocarbonylmethoxy)-4-(2-oxo-1,3-dioxolan-4-yloxy)-6-ethylphenyl]-3-(2,6-dimethyl-phenylamino)-6-fluoroimidazo[1,2-a]pyridine] | 1 to 10 µM | 0.01 to 1 µM
3 | COc1cc(C)c(-c2nc3ccc(F)cn3c2Nc2c(F)cccc2Br)c(OCC(N)=O)c1 [Compound A243, 2-[2-(Aminocarbonylmethoxy)-4-methoxy-6-methylphenyl]-3-(2-fluoro-6-bromophenylamino)-6-fluoroimidazo[1,2-a]pyridine] | 1 to 10 µM | 0.01 to 1 µM
4 | CCc1cccc(OCC(N)=O)c1-c1nc2ccc(F)cn2c1Nc1c(C)cccc1C [Compound A240, 2-[2-(Aminocarbonylmethoxy)-6-ethylphenyl]-3-(2,6-dimethylphenylamino)-6-fluoroimidazo-[1,2-a]pyridine] | 1 to 10 µM | 0.01 to 1 µM
5 | Cc1cccc(C)c1Nc1c(-c2c(C)cc(OCC(N)=O)cc2OCC(N)=O)nc2ccc(F)cn12 [Compound A178, 2-[2-(Aminocarbonylmethoxy)-4-(amino-carbonylmethoxy)-6-methylphenyl]-3-(2,6-dimethylphenylamino)-6-fluoroimidazo[1,2-a]-pyridine] | > 10 µM | 0.01 to 1 µM
6 | COc1cc(C)c(-c2nc3ccc(F)cn3c2Nc2c(Br)cccc2Br)c(OCC(N)=O)c1 [Compound A233, 2-[2-(Aminocarbonylmethoxy)-4-methoxy-6-methylphenyl]-3-(2,6-dibromophenylamino)-6-fluoroimidazo[1,2-a]pyridine] | > 10 µM | 0.01 to 1 µM
7 | Cc1cccc(C)c1Nc1c(-c2c(C)cc(OCCO)cc2OCC(N)=O)nc2ccc(F)cn12 [Compound A186, 2-[2-(Aminocarbonylmethoxy)-4-(2-hydroxy-ethoxy)-6-methylphenyl]-3-(2,6-dimethylphenyl-amino)-6-fluoroimidazo[1,2-a]pyridine] | > 10 µM | 0.01 to 1 µM
8 | COc1cc(C)c(-c2nc3ccc(F)cn3c2Nc2c(C)cc([N+](=O)[O-])cc2C)c(OCC(N)=O)c1 [Compound A254, 2-[2-(Aminocarbonylmethoxy)-4-methoxy-6-methylphenyl]-3-(2,6-dimethyl-4-nitrophenyl-amino)-6-fluoroimidazo[1,2-a]pyridine] | > 10 µM | 0.01 to 1 µM
9 | Cc1cccc(C)c1Nc1c(-c2ccc([N+](=O)[O-])cc2OCC(N)=O)nc2ccccn12 [Compound A179, 2-[2-(Aminocarbonylmethoxy)-4-nitrophenyl]-3-(2,6-dimethylphenylamino)imidazo[1,2-a]pyridine] | > 10 µM | 0.01 to 1 µM
10 | COc1cc(C)c(-c2nc3c(F)cc(F)cn3c2Nc2c(Cl)cc(F)cc2Cl)c(OCC(N)=O)c1 [Compound A225, 2-[2-(Aminocarbonylmethoxy)-4-methoxy-6-methylphenyl]-3-(4-fluoro-2,6-dichlorophenyl-amino)-6,8-difluoroimidazo[1,2-a]pyridine] | 1 to 10 µM | 0.01 to 1 µM
11 | Cc1cccc(C)c1Nc1c(-c2ccccc2OCC(N)=O)nc2ccc(C#N)cn12 [Compound A209, 2-[2-(Aminocarbonylmethoxy)phenyl]-3-(2,6-dimethylphenylamino)-6-cyanoimidazo[1,2-a]-pyridine] | > 10 µM | 1 to 10 µM
12 | COc1cc(C)c(-c2nc3ccc(F)cn3c2Nc2c(F)cccc2Cl)c(OCC(N)=O)c1 [Compound A248, 2-[2-(Aminocarbonylmethoxy)-4-methoxy-6-methylphenyl]-3-(2-fluoro-6-chlorophenylamino)-6-fluoroimidazo[1,2-a]pyridine] | > 10 µM | 0.01 to 1 µM
13 | Cc1cccc(C)c1Nc1c(-c2c(OCC(N)=O)ccc3ccccc23)nc2ccccn12 [Compound A181, 2-{1-[3-(2,6-Dimethylphenylamino)imidazo-[1,2-a]pyridin-2-yl]naphthalen-2-yloxy}acetamide] | 1 to 10 µM | 0.01 to 1 µM
14 | CCc1cc(OC2CCCCO2)cc(OCC(N)=O)c1-c1nc2ccc(F)cn2c1Nc1c(C)cccc1C (stereo not drawn) [Compound A182, 2-[2-(Aminocarbonylmethoxy)-4-(tetra-hydropyran-2-yloxy)-6-ethylphenyl]-3-(2,6-dimethylphenylamino)-6-fluoroimidazo[1,2-a]-pyridine] | > 10 µM | 0.01 to 1 µM
15 | CCOc1cc(CC)c(-c2nc3ccc(F)cn3c2Nc2c(C)cccc2C)c(OCC(N)=O)c1 [Compound A196, 2-[2-(Aminocarbonylmethoxy)-4-ethoxy-6-ethyl-phenyl]-3-(2,6-dimethylphenylamino)-6-fluoro-imidazo[1,2-a]pyridine] | > 10 µM | 0.01 to 1 µM
